Laboratory results reported in patent publication US7932283B2, “Fungicide N-cyclopropyl-sulfonylamide derivatives” (Bayer Cropscience AG, priority 2006, dated 2011).

Assays:
[1] = tested on: Mycosphaerella graminicola; experiment: In vivo test on Mycosphaerella graminicola (wheat leaf spot); conditions: Zymoseptoria tritici, wheat plants (Scipion variety), grading 21 to 28 days after contamination, good (at least 70%) or total protection, read-out: protection (% of efficacy)
Procedure: In vivo Test on Mycosphaerella graminicola (Wheat Leaf Spot)
The active ingredients tested are prepared by homogenisation in a mixture of acetone/tween/DMSO, and then diluted with water to obtain the desired active material concentration.
Wheat plants (Scipion variety), sown on a 50/50 peat soil-pozzolana substrate in starter cups and grown at 12° C., are treated at the 1-leaf stage (10 cm tall) by spraying with the active ingredient prepared as described above.
Plants, used as controls, are treated with the mixture of acetone/tween/DMSO/water not containing the active material.
After 24 hours, the plants are contaminated by spraying them with an aqueous suspension of Mycosphaerella graminicola spores (500 000 spores per ml). The spores are collected from a 7-day-old culture. The contaminated wheat plants are incubated for 72 hours at 18° C. and at 100% relative humidity, and then for 21 to 28 days at 90% relative humidity.
Grading (% of efficacy) is carried out 21 to 28 days after the contamination, in comparison with the control plants.

Puccinia recondita = experiment: In vivo test on Puccinia recondita f. sp. tritici (wheat brown rust); conditions: 240 h, wheat plants (Scipion variety), grading 10 days after contamination, good (at least 70%) or total protection
Procedure: In vivo Test on Puccinia reconditef. Sp. tritici (Wheat Brown Rust)
The active ingredients tested are prepared by homogenisation in a mixture of acetone/tween/DMSO, then diluted with water to obtain the desired active material concentration. Wheat plants (Scipion variety) in starter cups, sown on 50/50 peat soil-pozzolana substrate and grown at 12° C., are treated at the 1-leaf stage (10 cm tall) by spraying with the active ingredient prepared as described above. Plants, used as controls, are treated with the mixture of acetone/tween/DMSO/water not containing the active material.
After 24 hours, the plants are contaminated by spraying the leaves with an aqueous suspension of Puccinia recondita spores (100,000 spores per ml). The spores are collected from a 10-day-old contaminated wheat and are suspended in water containing 2.5 ml/of tween 80 10%. The contaminated wheat plants are incubated for 24 hours at 20° C. and at 100% relative humidity, and then for 10 days at 20° C. and at 70% relative humidity. Grading is carried out 10 days after the contamination, in comparison with the control plants.

[2] = logP by HPLC on reversed-phase column (C 18), EEC Directive 79/B31 Annex V.A8, methods A and B; format: physicochemical; conditions: reversed-phase HPLC column (C 18)
Procedure: Calibration was carried out using unbranched alkan-2-ones (having 3 to 16 carbon atoms) with known logP values (determination of the logP values by the retention times using linear interpolation between two successive alkanones).

[3] = HPLC reversed-phase C 18, method B: 40° C., 0.1% aqueous formic acid and acetonitrile, linear gradient 10% to 90% acetonitrile
[4] = LogP method B: HPLC reversed-phase C 18, 40° C., 0.1% aqueous formic acid / acetonitrile, linear gradient 10% to 90% acetonitrile
[5] = LogP method A: HPLC reversed-phase C 18, 43° C., 0.1% aqueous phosphoric acid / acetonitrile, linear gradient 10% to 90% acetonitrile
[6] = Method B: 40° C., 0.1% aqueous formic acid and acetonitrile
[7] = Method A: 43° C., 0.1% aqueous phosphoric acid, acetonitrile

| Structure (SMILES) | chromatographic logP [2, 4] | pest or weed control at 500 ppm (Puccinia recondita) [%] | further results |
| --- | --- | --- | --- |
| Cc1nc(C(=O)N(C2CC2)S(=O)(=O)c2ccc(Oc3ccccc3)cc2)c(C)o1 [Compound 45] |  |  | pest or weed control at 500 ppm [1]: ≥ 70% |
| Cn1cc(C(=O)N(C2CC2)S(=O)(=O)c2ccc(Oc3ccccc3)cc2)c(C(F)F)n1 [Compound 249] |  |  | pest or weed control at 500 ppm [1]: ≥ 70% |
| CCCOc1nn(C)cc1C(=O)N(C1CC1)S(=O)(=O)c1ccc(Oc2ccccc2)cc1 [Compound 281] |  | ≥ 70 |  |
| CCCCOc1ccc(S(=O)(=O)N(C(=O)c2cn(C)nc2OCCC)C2CC2)cc1 [Compound 309] |  | ≥ 70 |  |
| CCCOc1nn(C)cc1C(=O)N(C1CC1)S(=O)(=O)c1ccc(Oc2cccc(C(F)(F)F)c2)cc1 [Compound 318] |  | ≥ 70 |  |
| CCCOc1nn(C)cc1C(=O)N(C1CC1)S(=O)(=O)c1ccc(Oc2ccc(C(F)(F)F)cc2)cc1 [Compound 320] |  | ≥ 70 |  |
| CCCOc1nn(C)cc1C(=O)N(C1CC1)S(=O)(=O)c1ccc(Oc2ccc(Br)cc2)cc1 [Compound 328] |  | ≥ 70 |  |
| Cn1nc(C(F)(F)F)c(C(=O)N(C2CC2)S(=O)(=O)c2cccc(Cl)c2F)c1F [Compound 358] |  |  | chromatographic logP [2, 3]: 3.2; pest or weed control at 500 ppm [1]: ≥ 70% |
| Cn1nc(C(F)(F)F)c(C(=O)N(C2CC2)S(=O)(=O)c2ccc(F)c(F)c2F)c1F [Compound 366] |  | ≥ 70 |  |
| CCc1nn(C)c(F)c1C(=O)N(C1CC1)S(=O)(=O)c1ccccc1C(F)(F)F [Compound 377] |  |  | chromatographic logP [2, 3]: 2.9; pest or weed control at 500 ppm [1]: ≥ 70% |
| CCc1nn(C)c(F)c1C(=O)N(C1CC1)S(=O)(=O)c1ccc(F)cc1Br [Compound 380] |  | ≥ 70 | chromatographic logP [2, 3]: 2.9 |
| CC/C=N/N(C)/C(F)=C/C(=O)N(C1CC1)S(=O)(=O)c1csc(O)c1O [Compound 438] | 4 |  | pest or weed control at 500 ppm [1]: ≥ 70% |
| COc1nn(C)cc1C(=O)N(C1CC1)S(=O)(=O)c1ccc(Oc2cccc(C(F)(F)F)c2)cc1Cl [Compound 508] |  |  | pest or weed control at 500 ppm [1]: ≥ 70% |
| COc1nn(C)cc1C(=O)N(C1CC1)S(=O)(=O)c1ccc(Oc2ccc(Cl)c(Cl)c2)c(Cl)c1 [Compound 513] |  | ≥ 70 |  |
| COc1nn(C)cc1C(=O)N(C1CC1)S(=O)(=O)c1ccc(Oc2cccc(C(F)(F)F)c2F)cc1Cl [Compound 519] |  |  | pest or weed control at 500 ppm [1]: ≥ 70% |
| CCOc1nn(C)cc1C(=O)N(C1CC1)S(=O)(=O)c1ccc(OC2=CC(OC(F)(F)F)=CCC2)c(O)c1 [Compound 554] | 4.5 | ≥ 70 |  |
| CCOc1nn(C)cc1C(=O)N(C1CC1)S(=O)(=O)c1ccc(Oc2ccc(Cl)c(Cl)c2)c(Cl)c1 [Compound 557] | 4.8 | ≥ 70 |  |
| CCc1nn(C)c(F)c1C(=O)N(C1CC1)S(=O)(=O)c1ccc(Oc2cccc(C)c2)cc1 [Compound 578] |  |  | pest or weed control at 500 ppm [1]: ≥ 70% |
| Cc1cccc(Oc2ccc(S(=O)(=O)N(C(=O)c3c(C)nn(C)c3F)C3CC3)cc2)c1 [Compound 583] |  |  | pest or weed control at 500 ppm [1]: ≥ 70% |
| CC(C)c1c(C(=O)N(C2CC2)S(=O)(=O)c2ccc(C(C)(C)C)cc2)sc(=O)n1C1CC1 [Compound 636] |  |  | chromatographic logP [2, 5]: 3.01 |

| Structure (SMILES) | chromatographic logP [2, 4] | pest or weed control at 500 ppm (Puccinia recondita) [%] | further results |
| --- | --- | --- | --- |
| O=C(c1cccnc1)N(C1CC1)S(=O)(=O)c1ccc(C(F)(F)F)cc1 [Compound 637] |  |  | chromatographic logP [2, 5]: 2.74 |
| O=C(c1cccnc1)N(C1CC1)S(=O)(=O)c1ccc(O)c(C(F)(F)F)c1 [Compound 638] |  |  | chromatographic logP [2, 5]: 3.1 |
| O=C(c1cccnc1)N(C1CC1)S(=O)(=O)c1ccc(O)c(O)c1 [Compound 639] |  |  | chromatographic logP [2, 5]: 2.91 |
| O=C(c1cccnc1)N(C1CC1)S(=O)(=O)c1cccc(O)c1 [Compound 642] |  |  | chromatographic logP [2, 5]: 2.3 |
| O=C(c1cccnc1Cl)N(C1CC1)S(=O)(=O)c1cccc(O)c1 [Compound 643] |  |  | chromatographic logP [2, 5]: 2.91 |
| O=C(c1cccnc1Cl)N(C1CC1)S(=O)(=O)c1ccccc1O [Compound 644] |  |  | chromatographic logP [2, 5]: 2.58 |
| O=C(c1cccnc1O)N(C1CC1)S(=O)(=O)c1ccc(Oc2ccccc2)cc1 [Compound 646] | 3.7 |  |  |
| O=C(c1cccnc1O)N(C1CC1)S(=O)(=O)c1ccc(O)c(O)c1O [Compound 647] | 3.7 |  |  |
| O=C(c1cccnc1F)N(C1CC1)S(=O)(=O)c1cccc(O)c1O [Compound 649] | 2.4 |  |  |
| Cc1cc(C)c(C(=O)N(C2CC2)S(=O)(=O)c2cccc(O)c2O)c(O)n1 [Compound 650] |  |  | chromatographic logP [2, 5]: 3.57 |
| Cc1cc(C)c(C(=O)N(C2CC2)S(=O)(=O)c2ccc(O)c(O)c2O)c(Cl)n1 [Compound 651] |  |  | chromatographic logP [2, 5]: 4.16 |
| O=C(C1=C(C(F)(F)F)OCCS1)N(C1CC1)S(=O)(=O)c1ccccc1O [Compound 653] |  |  | chromatographic logP [2, 5]: 3.2 |
| Cc1cc(C(=O)N(C2CC2)S(=O)(=O)c2ccccc2O)nc(Cl)n1 [Compound 654] |  |  | chromatographic logP [2, 5]: 2.93 |
| Cc1cnn(C)c1C(=O)N(C1CC1)S(=O)(=O)c1cccc(O)c1O [Compound 658] | 3.1 |  |  |
| Cc1cnn(C)c1C(=O)N(C1CC1)S(=O)(=O)c1ccc(Oc2ccc(Br)cc2)cc1 [Compound 661] | 4.2 |  |  |
| COC(=O)C1(N(C(=O)c2c(C(F)(F)F)nn(C)c2F)S(=O)(=O)c2ccc(O)c(O)c2O)CC1 [Compound 667] |  |  | chromatographic logP [2, 6]: 4.04 |
| Cc1nn(C)c(F)c1C(=O)N(C1(c2ccc(O)cc2)CC1)S(=O)(=O)c1cccc(O)c1O [Compound 669] |  |  | chromatographic logP [2, 7]: 4.44 |
| Cc1nn(C)c(F)c1C(=O)N(C1(c2ccccc2)CC1)S(=O)(=O)c1cccc(O)c1O [Compound 670] |  |  | chromatographic logP [2, 6]: 4.1 |
| CCOc1nn(C)cc1C(=O)N(C1CC1C)S(=O)(=O)c1ccc(Oc2ccccc2)cc1 (stereo not shown) [Compound 675] |  |  | pest or weed control at 500 ppm [1]: ≥ 70% |
| Cc1nn(C)c(F)c1C(=O)N(C1CC1c1ccccc1)S(=O)(=O)c1ccccc1O (stereo not shown) [Compound 676] |  |  | chromatographic logP [2, 7]: 3.27 |

More lines, main results first:

| chromatographic logP [2, 4] | Structure (SMILES) | pest or weed control at 500 ppm (Puccinia recondita) [%] | further results |
| --- | --- | --- | --- |
| 3.5 | CCc1nn(C)c(F)c1C(=O)N(C1CC1)S(=O)(=O)c1cnc(O)c(Br)c1 [Compound 448] | ≥ 70 |  |
| 3.6 | CCOc1nn(C)cc1C(=O)N(C1CC1)S(=O)(=O)c1ccc(Oc2ccccc2)cc1O [Compound 530] |  | pest or weed control at 500 ppm [1]: ≥ 70% |
| 3.9 | CCOc1nn(C)cc1C(=O)N(C1CC1)S(=O)(=O)c1ccc(Oc2ccccc2)c(O)c1 [Compound 533] | ≥ 70 |  |
| 4 | CCOc1nn(C)cc1C(=O)N(C1CC1)S(=O)(=O)c1ccc(Oc2ccc(O)cc2)cc1O [Compound 535] |  | pest or weed control at 500 ppm [1]: ≥ 70% |
| 4.3 | CCOc1nn(C)cc1C(=O)N(C1CC1)S(=O)(=O)c1ccc(Oc2ccc(O)cc2)c(O)c1 [Compound 545] | ≥ 70 |  |
| 4.4 | CCOc1nn(C)cc1C(=O)N(C1CC1)S(=O)(=O)c1ccc(Oc2ccc(F)c(O)c2)c(O)c1 [Compound 548] | ≥ 70 |  |
| 4.5 | CCOc1nn(C)cc1C(=O)N(C1CC1)S(=O)(=O)c1ccc(Oc2cccc(Br)c2)c(O)c1 [Compound 551] | ≥ 70 |  |
| 4.7 | CCOc1nn(C)cc1C(=O)N(C1CC1)S(=O)(=O)c1ccc(Oc2ccc(O)cc2O)c(O)c1 [Compound 555] | ≥ 70 |  |
| 4.9 | CCOc1nn(C)cc1C(=O)N(C1CC1)S(=O)(=O)c1ccc(Oc2ccc(Br)c(O)c2)c(Cl)c1 [Compound 558] | ≥ 70 |  |
| 3.2 | O=C(c1cccnc1O)N(C1CC1)S(=O)(=O)c1cccc(O)c1O [Compound 645] |  |  |
| 4.3 | O=C(c1cccnc1O)N(C1CC1)S(=O)(=O)c1ccc(Oc2ccc(Br)cc2)cc1 [Compound 648] |  |  |
| 3.6 | Cc1cnn(C)c1C(=O)N(C1CC1)S(=O)(=O)c1ccc(O)c(O)c1O [Compound 659] |  |  |
| 3.6 | Cc1cnn(C)c1C(=O)N(C1CC1)S(=O)(=O)c1ccc(Oc2ccccc2)cc1 [Compound 660] |  |  |
| 2.8 | Cn1ncc(I)c1C(=O)N(C1CC1)S(=O)(=O)c1cccc(O)c1O [Compound 662] |  |  |
| 3.4 | Cn1ncc(I)c1C(=O)N(C1CC1)S(=O)(=O)c1ccc(O)c(O)c1O [Compound 663] |  |  |
